Results published in patent publication US9249127B2 (Orion Corporation, priority 2012, dated 2016).
pEC50: −log10 of the molar value. Where a name gives a salt, the structure may show the parent alone. Read-outs that look alike come from different tables or passages of the source.

Molecular target: T1, alpha2A receptor (Homo sapiens, UniProt P08913)
T1 sequence (P08913 1-465): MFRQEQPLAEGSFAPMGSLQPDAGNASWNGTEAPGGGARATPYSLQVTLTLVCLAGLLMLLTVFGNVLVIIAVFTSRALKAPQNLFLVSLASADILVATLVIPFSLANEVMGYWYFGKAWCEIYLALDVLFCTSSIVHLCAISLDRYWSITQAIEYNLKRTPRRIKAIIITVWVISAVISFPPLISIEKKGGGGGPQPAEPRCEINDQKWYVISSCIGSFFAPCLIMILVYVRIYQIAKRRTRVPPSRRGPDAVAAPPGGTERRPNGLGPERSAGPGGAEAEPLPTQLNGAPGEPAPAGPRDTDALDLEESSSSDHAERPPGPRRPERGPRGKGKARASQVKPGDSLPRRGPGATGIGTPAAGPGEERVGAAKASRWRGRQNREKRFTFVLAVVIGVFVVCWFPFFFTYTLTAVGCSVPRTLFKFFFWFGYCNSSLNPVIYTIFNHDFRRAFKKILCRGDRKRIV
Experiment: Alpha2A agonistic activity in vitro
Type: cell-based
Conditions: for EC50: read-out: Alpha2A Agonism pEC50 (converted); for pEC50: Alpha2A Agonism pEC50, in vitro

| Compound | Alpha2A Agonism pEC50 (in vitro) | Alpha2A Intrinsic Activity (in vitro) | EC50 (in vitro) [nM] | pEC50 | Alpha2A Intrinsic Activity (in vitro, hydrochloride) |
| --- | --- | --- | --- | --- | --- |
| 2-(5-methoxy-3-(2,2,2-trifluoroethyl)methyl-isochroman-1-yl)-4,5-dihydro-1H-imidazole [Example 77] | 6.3 | 0.16 |  |  |  |
| CC1(C2=NCCN2)OCCc2c(C(O)C(C)(C)C)cccc21 (single isomer, unassigned) [Example 13, 1-(1-(4,5-Dihydro-1H-imidazol-2-yl)-1-methylisochroman-5-yl)-2,2-dimethylpropan-1-ol] |  | 0.66 | 1260 |  |  |
| CC1(C2=NCCN2)OCCc2c(C(O)C(C)(C)C)cccc21 (single isomer, unassigned) [Example 14, 1-(1-(4,5-Dihydro-1H-imidazol-2-yl)-1-methylisochroman-5-yl)-2,2-dimethylpropan-1-ol] |  | 0.43 | 3160 |  |  |
| Cc1cccc2c1CCOC2(C)C1=NCCN1 (single isomer, unassigned) [Example 21, 2-(1,5-Dimethylisochroman-1-yl)-4,5-dihydro-1H-imidazole] |  | 0.73 |  | 7.30 |  |
| Cc1cccc2c1CCOC2(C)C1=NCCN1 (single isomer, unassigned) [Example 22, 2-(1,5-Dimethylisochroman-1-yl)-4,5-dihydro-1H-imidazole] |  | 0.33 | 1000 |  |  |
| FC(F)(F)CC1Cc2c(Br)cccc2C(C2=NCCN2)O1 (single isomer, unassigned) [Example 68] |  | 0.25 |  |  |  |
| CCc1cccc2c1CCOC2C1=NCCN1 (single isomer, unassigned) [Example 80] |  | 0.58 | 251 |  |  |
| COc1cccc2c1CCOC2C1=NCCN1 (single isomer, unassigned) [Example 82, 2-(5-methoxyisochroman-1-yl)-4,5-dihydro-1H-imidazole] |  | 0.52 | 158 |  |  |
| FC(F)(F)CC1Cc2c(Br)cccc2C(C2=NCCN2)O1 (single isomer, unassigned) [Example 83] |  | 0.41 | 126 |  |  |
| Cc1cccc2c1CC(CC(F)(F)F)OC2C1=NCCN1 (single isomer, unassigned) [Example 86, 2-((3)-5-methyl-3-(2,2,2-trifluoroethyl)isochroman-1-yl)-4,5-dihydro-1H-imidazole] |  | 0.28 | 100 |  |  |
| CCCC1Cc2c(Br)cccc2C(C2=NCCN2)O1 (single isomer, unassigned) [Example 88, 2-((3)-5-bromo-3-propylisochroman-1-yl)-4,5-dihydro-1H-imidazole] |  | 0.50 |  | 7.30 |  |
| Cc1cccc2c1CC(CC(F)F)OC2C1=NCCN1 (single isomer, unassigned) [Example 89, 2-((3-(2,2-difluoroethyl)-5-methylisochroman-1-yl)-4,5-dihydro-1H-imidazole hydrochloride] |  |  |  | 7.40 | 0.33 |
| Clc1cccc2c1CCOC2C1=NCCN1 (single isomer, unassigned) [Example 92, 2-(5-chloroisochroman-1-yl)-4,5-dihydro-1H-imidazole] |  | 0.78 |  | 7.50 |  |
| CCC1Cc2c(Br)cccc2C(C2=NCCN2)O1 (single isomer, unassigned) [Example 94, 2-(5-bromo-3-ethylisochroman-1-yl)-4,5-dihydro-1H-imidazole] |  | 0.55 |  | 7.60 |  |
| CCc1cccc2c1CCOC2C1=NCCN1 (single isomer, unassigned) [Example 96] |  | 0.66 |  | 7.70 |  |
| COc1cccc2c1CCOC2C1=NCCN1 (single isomer, unassigned) [Example 97, 2-(5-methoxyoisochroman-1-yl)-4,5-dihydro-1H-Imidazole] |  | 0.69 | 15.8 |  |  |

| Compound | Alpha2A Agonism pEC50 (in vitro) | Alpha2A Intrinsic Activity (in vitro) | EC50 (in vitro) [nM] | pEC50 | Alpha2A Intrinsic Activity (in vitro, hydrochloride) |
| --- | --- | --- | --- | --- | --- |
| Clc1cccc2c1CCOC2C1=NCCN1 (single isomer, unassigned) [Example 100, 2-(5-chloroisochroman-1-yl)-4,5-dihydro-1H-imidazole] |  | 0.91 |  | 8.40 |  |
| Brc1cccc2c1CCOC2C1=NCCN1 (single isomer, unassigned) [Example 101, 2-(5-bromoisochroman-1-yl)-4,5-dihydro-1H-imidazole] |  | 0.89 |  | 8.50 |  |
| CC1(C2=NCCN2)OCc2cccc3cccc1c23 (single isomer, unassigned) [Example 103, 2-(1-methyl-1,3-dihydrobenzo[de]isochromen-1-yl)-4,5-dihydro-1H-imidazole] |  | 0.74 |  | 8.20 |  |
| CC1(C2=NCCN2)OCCc2c(Br)cccc21 (single isomer, unassigned) [Example 106, 2-(5-bromo-1-methylisochroman-1-yl)-4,5-dihydro-1H-imidazole] |  | 0.64 | 158 |  |  |
| Cc1cccc2c1CCOC2C1=NCCN1 (stereo not drawn) [Example 1, 2-(5-Methylisochroman-1-yl)-4,5-dihydro-1H-imidazole] |  | 0.89 |  | 8.40 |  |
| Brc1cccc2c1CCOC2C1=NCCN1 (stereo not drawn) [Example 2, 2-(5-Bromoisochroman-1-yl)-4,5-dihydro-1H-imidazole] |  | 0.85 |  | 7.80 |  |
| Cc1cccc2c1CCOC2(C)C1=NCCN1 (stereo not drawn) [Example 3, 2-(1,5-Dimethylisochroman-1-yl)-4,5-dihydro-1H-imidazole] |  | 0.95 |  | 7.20 |  |
| Clc1cccc2c1CCOC2C1=NCCN1 (stereo not drawn) [Example 4, 2-(5-Chloroisochroman-1-yl)-4,5-dihydro-1H-imidazole] |  | 0.85 |  | 8.10 |  |
| N#Cc1cccc2c1CCOC2C1=NCCN1 (stereo not drawn) [Example 5, 1-(4,5-Dihydro-1H-imidazol-2-yl)isochroman-5-carbonitrile] |  | 0.59 | 1260 |  |  |
| C=CCc1cccc2c1CCOC2C1=NCCN1 (stereo not drawn) [Example 6, 2-(5-Allylisochroman-1-yl)-4,5-dihydro-1H-imidazole] |  | 0.53 |  | 7.40 |  |
| C=Cc1cccc2c1CCOC2C1=NCCN1 (stereo not drawn) [Example 7, 2-(5-Vinylisochroman-1-yl)-4,5-dihydro-1H-imidazole] |  | 0.81 |  | 7.40 |  |
| CCc1cccc2c1CCOC2C1=NCCN1 (stereo not drawn) [Example 8] |  | 0.77 |  | 7.40 |  |
| Oc1cccc2c1CCOC2C1=NCCN1 (stereo not drawn) [Example 9, 1-(4,5-Dihydro-1H-imidazol-2-yl)isochroman-5-ol] |  | 0.73 | 200 |  |  |
| OCc1cccc2c1CCOC2C1=NCCN1 (stereo not drawn) [Example 10, (1-(4,5-Dihydro-1H-imidazol-2-yl)isochroman-5-yl)methanol] |  | 0.90 |  | 7.70 |  |
| CC1(C2=NCCN2)OCCc2c(Br)cccc21 (stereo not drawn) [Example 11, 2-(5-Bromo-1-methylisochroman-1-yl)-4,5-dihydro-1H-imidazole] |  | 0.83 |  | 7.00 |  |
| CC[C@@H]1Cc2c(Cl)cccc2C(C2=NCCN2)O1 (stereo partly drawn) [Example 12, 2-((3R)-5-chloro-3-ethylisochroman-1-yl)-4,5-dihydro-1H-imidazole] |  | 0.94 | 1580 |  |  |
